The record followed here is US10513523B2, “Imidazopyrazines and pyrazolopyrimidines and their use as AMPA receptor modulators” (Janssen Pharmaceutica NV, priority 2015, dated 2019).

The experiment deals with GluA1o-γ8 (GRIA1o-CACNG8 fusion construct; TARP γ8 dependent AMPA receptor) (Homo sapiens (Human), UniProt P42261+Q8WXS5). The experiment is described as follows: Calcium flux assay (FLIPR), inhibition of glutamate response of GluA1o-γ8 channel. As to conditions: HEK293 cells stably expressing GRIA1o-CACNG8 fusion; 15 μM glutamate; pIC50 = negative log of IC50 in molar; read-out: GluR1-γ8 (pIC50) (converted). The experiment is classed as cell-based. An outline of the steps:
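Potency is the midpoint of a four-parameter logistic fit to control-normalized FLIPR calcium responses elicited by 15 μM glutamate. Stable HEK293 cells carried a fused GluA1o-γ8 construct and were preincubated with compound and calcium dye in pH 7.4 HEPES buffer.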

Sequence of GluA1o-γ8 (GRIA1o-CACNG8 fusion construct; TARP γ8 dependent AMPA receptor) (P42261 other isoform, or with tags, fused parts or gaps): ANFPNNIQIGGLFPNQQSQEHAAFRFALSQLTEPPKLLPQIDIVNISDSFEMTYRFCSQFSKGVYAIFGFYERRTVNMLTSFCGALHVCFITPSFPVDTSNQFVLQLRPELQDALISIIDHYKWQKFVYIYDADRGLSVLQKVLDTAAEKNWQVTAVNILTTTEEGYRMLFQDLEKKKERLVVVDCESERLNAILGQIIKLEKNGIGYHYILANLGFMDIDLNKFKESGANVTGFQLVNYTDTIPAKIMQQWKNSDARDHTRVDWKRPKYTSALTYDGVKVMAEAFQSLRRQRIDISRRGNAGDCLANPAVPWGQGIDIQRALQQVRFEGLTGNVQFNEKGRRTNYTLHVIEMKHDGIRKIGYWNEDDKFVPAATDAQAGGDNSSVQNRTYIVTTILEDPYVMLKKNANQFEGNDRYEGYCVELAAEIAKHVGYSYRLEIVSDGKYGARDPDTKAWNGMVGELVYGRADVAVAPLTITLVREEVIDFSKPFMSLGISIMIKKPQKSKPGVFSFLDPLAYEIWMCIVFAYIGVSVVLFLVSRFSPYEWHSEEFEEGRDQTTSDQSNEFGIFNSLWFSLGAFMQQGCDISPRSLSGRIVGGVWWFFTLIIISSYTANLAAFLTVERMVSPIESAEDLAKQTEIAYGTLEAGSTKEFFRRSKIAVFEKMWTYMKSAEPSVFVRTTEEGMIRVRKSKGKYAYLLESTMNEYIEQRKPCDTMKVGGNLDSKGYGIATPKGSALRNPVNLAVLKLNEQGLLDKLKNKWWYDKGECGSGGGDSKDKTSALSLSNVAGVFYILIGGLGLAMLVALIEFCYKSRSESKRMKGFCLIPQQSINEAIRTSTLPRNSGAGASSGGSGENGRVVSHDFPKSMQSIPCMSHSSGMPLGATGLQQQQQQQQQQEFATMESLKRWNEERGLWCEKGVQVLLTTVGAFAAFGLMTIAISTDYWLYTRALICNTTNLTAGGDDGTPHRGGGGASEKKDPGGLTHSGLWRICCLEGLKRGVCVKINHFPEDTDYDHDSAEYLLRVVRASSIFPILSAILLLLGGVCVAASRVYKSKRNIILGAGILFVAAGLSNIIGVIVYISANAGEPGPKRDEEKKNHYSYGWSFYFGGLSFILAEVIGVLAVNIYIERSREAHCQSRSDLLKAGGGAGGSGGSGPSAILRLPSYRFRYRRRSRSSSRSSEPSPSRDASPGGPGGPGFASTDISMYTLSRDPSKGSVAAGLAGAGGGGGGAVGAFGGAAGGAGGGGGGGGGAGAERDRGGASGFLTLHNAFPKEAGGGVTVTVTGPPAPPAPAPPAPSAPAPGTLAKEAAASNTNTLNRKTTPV

For `O=S1(=O)Cc2cc(-c3c(-c4ccc(F)cc4)nc4c(N5CCC(O)CC5)nccn34)ccc2N1` [Example 119, 1-[3-(2,2-Dioxo-1,3-dihydro-2,1-benzothiazol-5-yl)-2-(4-fluorophenyl)imidazo[1,2-a]pyrazin-8-yl]piperidin-4-ol], the IC50 is 3.16 nM. The figure for `N#Cc1ccc(-c2nc3c(N4CCNC(=O)C4)nccn3c2-c2ccc3[nH]ncc3c2)cc1` [Example 209, 4-[3-(1H-Indazol-5-yl)-8-(3-oxopiperazin-1-yl)imidazo[1,2-a]pyrazin-2-yl]benzonitrile] is 2 nM; for `CC(C)c1nn2c(N3CCOCC3)ncc(F)c2c1-c1ccc2c(c1)CC(=O)N2` [Example 235, 5-(4-Fluoro-2-isopropyl-7-morpholino-pyrazolo[1,5-c]pyrimidin-3-yl)indolin-2-one] it is 501 nM; for `CC(C)Oc1nccc2c(-c3ccc4c(c3)CC(=O)N4)c(-c3ccccc3)nn12` [Example 194, 5-(7-Isopropoxy-2-phenyl-pyrazolo[1,5-c]pyrimidin-3-yl)indolin-2-one] it is 31.6 nM. The same measure for `O=c1[nH]c2ccc(-c3c(C4CC4)nc4cnc(C(F)(F)F)cn34)cc2s1` [Example 216, 6-[2-Cyclopropyl-6-(trifluoromethyl)imidazo[1,2-a]pyrazin-3-yl]-3H-1,3-benzothiazol-2-one]: 501 nM; for `O=C1Cc2cc(-c3c(-c4ccncc4)nc4c(N5CCC(O)CC5)nccn34)ccc2N1` [Example 215, 5-[8-(4-Hydroxy-1-piperidyl)-2-(4-pyridyl)imidazo[1,2-a]pyrazin-3-yl]indolin-2-one]: 39.8 nM; for `CC(C)Oc1nccn2c(-c3ccc4c(c3)CC(=O)N4)c(-c3ccc(F)cc3)nc12` [Example 129, 5-[2-(4-Fluorophenyl)-8-isopropoxy-imidazo[1,2-a]pyrazin-3-yl]indolin-2-one]: 20 nM. The same measure for `O=C1Cc2cc(-c3c(-c4ccncc4)nc4c(N5CC(F)C5)nccn34)ccc2N1` [Example 89, 5-[8-(3-Fluoroazetidin-1-yl)-2-(4-pyridyl)imidazo[1,2-a]pyrazin-3-yl]indolin-2-one]: 200 nM; for `O=C1Cc2cc(-c3c(-c4ccccc4)nn4c(N5CCOCC5)nccc34)ccc2N1` [Example 201, 5-(7-Morpholino-2-phenyl-pyrazolo[1,5-c]pyrimidin-3-yl)indolin-2-one]: 1 nM. In the case of `Oc1ccc(-c2c(-c3ccc(F)cc3)nc3c(N4CCC(F)(F)CC4)nccn23)cc1` [Example 28, 4-[8-(4,4-Difluoro-1-piperidyl)-2-(4-fluorophenyl)imidazo[1,2-a]pyrazin-3-yl]phenol], the IC50 is 158 nM. The figure for `CN(C(=O)c1nc2c(N3CCOCC3)nccn2c1-c1ccc2[nH]c(=O)[nH]c2c1)c1ccccc1` [Example 145, N-Methyl-8-morpholino-3-(2-oxo-1,3-dihydrobenzimidazol-5-yl)-N-phenyl-imidazo[1,2-a]pyrazine-2-carboxamide] is 501 nM; for `CC(C)c1nn2c(N3CCOCC3)nccc2c1-c1ccc2[nH]ncc2c1` [Example 238, 4-[3-(1H-Indazol-5-yl)-2-isopropyl-pyrazolo[1,5-c]pyrimidin-7-yl]morpholine] it is 398 nM; for `O=C1Cc2cc(-c3c(-c4ccc(F)cc4)nn4c(N5CCOCC5)nccc34)ccc2N1` [Example 164, 5-[2-(4-Fluorophenyl)-7-morpholino-pyrazolo[1,5-c]pyrimidin-3-yl]indolin-2-one] it is 0.501 nM.

Consider `O=C1Cc2cc(-c3c(C4CCCC4)nn4c(N5CCOCC5)nccc34)ccc2N1` [Example 203, 5-(2-Cyclopentyl-7-morpholino-pyrazolo[1,5-c]pyrimidin-3-yl)indolin-2-one], for which the IC50 was 63.1 nM. The figure for `O=C1CCN(c2nccc3c(-c4ccc5c(c4)CC(=O)N5)c(-c4ccc(F)cc4)nn23)CC1` [Example 174, 5-[2-(4-Fluorophenyl)-7-(4-oxo-1-piperidyl)pyrazolo[1,5-c]pyrimidin-3-yl]indolin-2-one] is 0.0794 nM. The same measure for `O=c1[nH]c2ccc(-c3c(-c4ccc(F)cc4)nc4c(N5CCOCC5)nccn34)cc2s1` [Example 118, 6-[2-(4-Fluorophenyl)-8-morpholino-imidazo[1,2-a]pyrazin-3-yl]-3H-1,3-benzothiazol-2-one]: 0.316 nM.

As to `O=C1Cc2cc(-c3c(-c4ccc(F)cc4)nc4c(NC5CCNC5=O)nccn34)ccc2N1` (stereo not drawn) [Example 40, 5-[2-(4-Fluorophenyl)-8-[(2-oxopyrrolidin-3-yl)amino]imidazo[1,2-a]pyrazin-3-yl]indolin-2-one], the IC50 was 251 nM. As to `O=C1Cc2cc(-c3c(-c4ccc(F)cc4)nc4c(N5CCC(O)C5)nccn34)ccc2N1` (stereo not drawn) [Example 41, 5-[2-(4-Fluorophenyl)-8-(3-hydroxypyrrolidin-1-yl)imidazo[1,2-a]pyrazin-3-yl]indolin-2-one], the IC50 is 0.631 nM.

In the case of `CC(=O)N1CCN(c2nccn3c(-c4ccc5[nH]c(=O)[nH]c5c4)c(Cc4ccccc4)nc23)CC1` [Example 19, 5-[8-(4-Acetylpiperazin-1-yl)-2-benzyl-imidazo[1,2-a]pyrazin-3-yl]-1,3-dihydrobenzimidazol-2-one], the IC50 is 3.98 nM.

Consider `COC1CCN(c2nccc3c(-c4ccc5[nH]ncc5c4)c(C(C)C)nn23)CC1` [Example 237, 3-(1H-indazol-5-yl)-2-isopropyl-7-(4-methoxy-1-piperidyl)pyrazolo[1,5-c]pyrimidine], for which the IC50 was 126 nM. The same measure for `O=C1Cc2cc(-c3c(C4CCCCC4)nc4c(N5CCOCC5)nccn34)ccc2N1` [Example 56, 5-(2-Cyclohexyl-8-morpholino-imidazo[1,2-a]pyrazin-3-yl)indolin-2-one]: 7.94 nM; for `O=C(c1ccc(F)cc1)c1nc2c(N3CCOCC3)nccn2c1-c1ccc(O)cc1` [Example 149, (4-Fluorophenyl)(3-(4-hydroxyphenyl)-8-morpholinoimidazo[1,2-a]pyrazin-2-yl)methanone]: 3.98 nM. The figure for `O=C1CN(c2nccc3c(-c4ccc5c(c4)CC(=O)N5)c(-c4ccc(F)cc4)nn23)CCN1` [Example 168, 5-[2-(4-Fluorophenyl)-7-(3-oxopiperazin-1-yl)pyrazolo[1,5-c]pyrimidin-3-yl]indolin-2-one] is 1.26 nM; for `CC(C)c1nn2c(N3CCOCC3)nccc2c1-c1ccc2[nH]c(=O)sc2c1` [Example 240, 6-(2-Isopropyl-7-morpholino-pyrazolo[1,5-c]pyrimidin-3-yl)-3H-1,3-benzothiazol-2-one] it is 15.8 nM; for `O=C1Cc2cc(-c3c(C4CC4)nn4cnc(C(F)(F)F)cc34)ccc2N1` [Example 228, 5-[2-Cyclopropyl-5-(trifluoromethyl)pyrazolo[1,5-c]pyrimidin-3-yl]indolin-2-one] it is 39800 nM.

Take `O=C1Cc2cc(-c3c(-c4ccc(F)cc4)nc4c(N5CCOC(C(F)(F)F)C5)nccn34)ccc2N1` (stereo not drawn) [Example 42, 5-[2-(4-Fluorophenyl)-8-[2-(trifluoromethyl)morpholin-4-yl]imidazo[1,2-a]pyrazin-3-yl]indolin-2-one]: the IC50 is 7.94 nM. Regarding `O=C1Cc2cc(-c3c(-c4ccccc4)nc4cnc(C(F)(F)F)cn34)ccc2N1` [Example 218, 5-[2-Phenyl-6-(trifluoromethyl)imidazo[1,2-a]pyrazin-3-yl]indolin-2-one], the IC50 is 100 nM. `CC1(O)CN(c2nccc3c(-c4ccc5c(c4)CC(=O)N5)c(-c4ccc(F)cc4)nn23)C1` [Example 184, 5-[2-(4-Fluorophenyl)-7-(3-hydroxy-3-methyl-azetidin-1-yl)pyrazolo[1,5-c]pyrimidin-3-yl]indolin-2-one]: the IC50 was 3.16 nM.

As for `O=C1Cc2cc(-c3c(-c4ccc(F)cc4)nc4c(N5CCOCC5)ncc(F)n34)ccc2N1` [Example 161, 5-(5-Fluoro-2-(4-fluorophenyl)-8-morpholinoimidazo[1,2-a]pyrazin-3-yl)indolin-2-one], the IC50 is 6.31 nM. The same measure for `O=C1Cc2cc(-c3c(C(=O)NCc4ccccc4)nc4c(N5CCOCC5)nccn34)ccc2N1` [Example 142, N-Benzyl-8-morpholino-3-(2-oxoindolin-5-yl)imidazo[1,2-a]pyrazine-2-carboxamide]: 31.6 nM. The same measure for `CC(C)(C)c1nc2c(N3CCC(O)CC3)nccn2c1-c1ccc2c(c1)CC(=O)N2` [Example 88, 5-[2-tert-Butyl-8-(4-hydroxy-1-piperidyl)imidazo[1,2-a]pyrazin-3-yl]indolin-2-one]: 126 nM; for `O=C1NCc2cc(-c3c(-c4ccc(F)cc4)nc4c(N5CCOCC5)nccn34)ccc2N1` [Example 120, 6-[2-(4-Fluorophenyl)-8-morpholino-imidazo[1,2-a]pyrazin-3-yl]-3,4-dihydro-1H-quinazolin-2-one]: 100 nM; for `Oc1ccc(-c2c(Cc3ccccc3)nc3c(N4CCOCC4)nccn23)cc1` [Example 15, 4-(2-Benzyl-8-morpholino-imidazo[1,2-a]pyrazin-3-yl)phenol]: 25.1 nM.

As to `O=C1Cc2cc(-c3c(C(=O)c4ccccc4)nc4c(N5CCOCC5)nccn34)ccc2N1` [Example 153, 5-(2-Benzoyl-8-morpholino-imidazo[1,2-a]pyrazin-3-yl)indolin-2-one], the IC50 is 0.316 nM. Turning to `CC(C)(C)c1nn2c(N3CC(F)(F)C3)nccc2c1-c1ccc2c(c1)CC(=O)N2` [Example 183, 5-[2-tert-Butyl-7-(3,3-difluoroazetidin-1-yl)pyrazolo[1,5-c]pyrimidin-3-yl]indolin-2-one], the IC50 was 63.1 nM.

In the case of `O=C1CN(c2nccn3c(-c4ccc5c(c4)CC(=O)N5)c(C(=O)c4ccccc4)nc23)CCN1` [Example 246, 5-[2-Benzoyl-8-(3-oxopiperazin-1-yl)imidazo[1,2-a]pyrazin-3-yl]indolin-2-one], the IC50 was 31.6 nM.
